Earlier results in US20250214981A1, “COMPOUND AND APPLICATION THEREOF IN PREPARATION OF MEDICINE FOR TREATING ENTEROVIRUS-RELATED DISEASES” (priority 2022, published 2025).

Legend:
[1] = in vivo
[2] = system: human rhinovirus serotypes
[3] = system: mammalian cysteine and serine proteases, including cathepsin B, elastase, chymotrypsin, trypsin, thrombin, and calpain

CCOC(=O)/C=C/[C@H](C[C@@H]1CCNC1=O)NC(=O)[C@@H](CC(=O)[C@@H](NC(=O)c1cc(C)on1)C(C)C)Cc1ccc(F)cc1 [AG7088]
bioavailability [1]: low bioavailability
antiviral activity against a variety of human rhinovirus serotypes [2]: significant antiviral activity
inhibitory activity against mammalian cysteine and serine proteases [3]: negligible inhibitory activity
